This is an account of results in PMC4155245, “Clostridium difficile has a single sortase, SrtB, that can be inhibited by small-molecule inhibitors” (BMC Microbiology, 2014).

One may read the IC50 as the midpoint of a concentration-inhibition curve.

Like-named read-outs stand apart in the source and are kept apart here.

For the assay, the target named is T1, SrtB (sortase B, CD630_27180) (Clostridioides difficile, UniProt Q183F3).
T1 construct: SrtBΔN26 (N-terminal transmembrane residues 2–25 replaced with a six-histidine tag)
T1 sequence (Q183F3 entry or part of it): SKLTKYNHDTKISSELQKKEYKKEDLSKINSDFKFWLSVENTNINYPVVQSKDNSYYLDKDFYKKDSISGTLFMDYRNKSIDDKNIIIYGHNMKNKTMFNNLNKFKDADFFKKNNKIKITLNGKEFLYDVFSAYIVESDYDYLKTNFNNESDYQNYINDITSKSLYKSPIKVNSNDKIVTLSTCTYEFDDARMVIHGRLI
As to the kind of experiment: FRET peptide cleavage assay (d-PVPPKTGDS-e) with purified recombinant SrtBΔN26. The format is biochemical.

Take `C[N+](C)(C)CCSS(C)(=O)=O` [MTSET, 2-(trimethylamonium)ethylmethanethiosulfonate]: the IC50 was determined as 287 ± 16.6 µM.

As to LSHTM-0040 [LSHTM40], the IC50 (read-out: IC50) was determined as 63.1 ± 8.8 µM. LSHTM-0050 [LSHTM50]: the IC50 (read-out: IC50) amounted to 60.1 ± 4.7 µM. The same measure, in the same setting: then LSHTM-0052 [LSHTM52], with 44.1 ± 6.9 µM.
